Values after ≈ are worked out from the molar mass of the structure shown.
What was measured:
Streptococcus pyogenes [1] = experiment: Antibacterial activity against erythromycin-susceptible Streptococcus pyogenes by broth microdilution method; format: functional
Streptococcus pneumoniae [2] = experiment: Antibacterial activity against erythromycin-resistant Streptococcus pneumoniae AB11 expressing erm and mef genes by broth microdilution method; format: functional
Staphylococcus aureus [3] = experiment: Antibacterial activity against penicillin-resistant Staphylococcus aureus clinical isolate by broth microdilution method; format: functional
Streptococcus pyogenes [4] = experiment: Antibacterial activity against erythromycin-resistant Streptococcus pyogenes RE clinical isolate by broth microdilution method; format: functional
Streptococcus pneumoniae [5] = experiment: Antibacterial activity against erythromycin-resistant Streptococcus pneumoniae A22072 expressing mef gene by broth microdilution method; format: functional
Streptococcus pneumoniae [6] = experiment: Antibacterial activity against erythromycin-resistant Streptococcus pneumoniae B1 expressing erm gene by broth microdilution method; format: functional
Staphylococcus aureus [7] = experiment: Antibacterial activity against erythromycin-susceptible Staphylococcus aureus ATCC 25923 by broth microdilution method; format: functional
Staphylococcus aureus [8] = experiment: Antibacterial activity against methicillin-susceptible Staphylococcus aureus ATCC 29213 by broth microdilution method; format: functional
Salmonella typhimurium [9] = experiment: Antibacterial activity against Salmonella typhimurium TA102 by broth microdilution method; format: functional, Salmonella enterica subsp. enterica serovar Typhimurium; conditions: Salmonella enterica
Streptococcus pneumoniae [10] = experiment: Antibacterial activity against erythromycin-susceptible Streptococcus pneumoniae ATCC 49619 by broth microdilution method; format: functional
Salmonella typhimurium [11] = experiment: Antibacterial activity against Salmonella typhimurium TA98 by broth microdilution method; format: functional, Salmonella enterica subsp. enterica serovar Typhimurium; conditions: Salmonella enterica

Row | SMILES | MIC (Streptococcus pyogenes [1]) | MIC (Streptococcus pneumoniae [2]) | MIC (Staphylococcus aureus [3]) | MIC (Streptococcus pyogenes [4]) | MIC (Streptococcus pneumoniae [5]) | MIC (Streptococcus pneumoniae [6]) | MIC (Staphylococcus aureus [7]) | MIC (Staphylococcus aureus [8]) | MIC (Salmonella typhimurium [9]) | MIC (Streptococcus pneumoniae [10]) | MIC (Salmonella typhimurium [11])
1 | CC[C@H]1OC(=O)[C@H](C)[C@@H](O[C@H]2C[C@@](C)(OC)[C@@H](OC(=O)NCCCCNC(=O)c3ccc(OC)cc3)[C@H](C)O2)[C@H](C)[C@@H](O[C@@H]2O[C@H](C)C[C@H](N(C)C)[C@H]2O)[C@](C)(O)C[C@@H](C)CN(C)[C@H](C)[C@@H](OC(=O)NCc2ccc(OC)cc2)[C@]1(C)O | 32 µg/mL (≈ 27.6 µM) | 16 µg/mL (≈ 13.8 µM) | 4 µg/mL (≈ 3.45 µM) | 64 µg/mL (≈ 55.2 µM) | 0.5 µg/mL (≈ 0.431 µM) | 2 µg/mL (≈ 1.72 µM) | 1 µg/mL (≈ 0.862 µM) | 4 µg/mL (≈ 3.45 µM) | 2 µg/mL (≈ 1.72 µM) | 0.12 µg/mL (≈ 0.103 µM) | 16 µg/mL (≈ 13.8 µM)
2 | CC[C@H]1OC(=O)[C@H](C)[C@@H](O[C@H]2C[C@@](C)(OC)[C@@H](OC(=O)NCCCCNC(=O)c3ccc(OC)cc3)[C@H](C)O2)[C@H](C)[C@@H](O[C@@H]2O[C@H](C)C[C@H](N(C)C)[C@H]2O)[C@](C)(O)C[C@@H](C)CN(C)[C@H](C)[C@@H](OC(=O)NCc2ccccc2)[C@]1(C)O | 8 µg/mL (≈ 7.08 µM) | 8 µg/mL (≈ 7.08 µM) | 2 µg/mL (≈ 1.77 µM) | 64 µg/mL (≈ 56.6 µM) | 0.12 µg/mL (≈ 0.106 µM) | 2 µg/mL (≈ 1.77 µM) | 0.5 µg/mL (≈ 0.442 µM) | 4 µg/mL (≈ 3.54 µM) | 0.12 µg/mL (≈ 0.106 µM) | 0.03 µg/mL (≈ 0.0265 µM) | 2 µg/mL (≈ 1.77 µM)
3 | CC[C@H]1OC(=O)[C@H](C)[C@@H](O[C@H]2C[C@@](C)(OC)[C@@H](OC(=O)NNC(=O)c3ccc(Cl)cc3)[C@H](C)O2)[C@H](C)[C@@H](O[C@@H]2O[C@H](C)C[C@H](N(C)C)[C@H]2O)[C@](C)(O)C[C@@H](C)CN(C)[C@H](C)[C@@H](OC(=O)NCCc2ccccc2)[C@]1(C)O | 1 µg/mL (≈ 0.915 µM) | 8 µg/mL (≈ 7.32 µM) | 8 µg/mL (≈ 7.32 µM) | 32 µg/mL (≈ 29.3 µM) | 0.12 µg/mL (≈ 0.11 µM) | 2 µg/mL (≈ 1.83 µM) | 0.5 µg/mL (≈ 0.458 µM) | 2 µg/mL (≈ 1.83 µM) | 8 µg/mL (≈ 7.32 µM) | 0.03 µg/mL (≈ 0.0275 µM) | 1 µg/mL (≈ 0.915 µM)
4 | CC[C@H]1OC(=O)[C@H](C)[C@@H](O[C@H]2C[C@@](C)(OC)[C@@H](O)[C@H](C)O2)[C@H](C)[C@@H](O[C@@H]2O[C@H](C)C[C@H](N(C)C)[C@H]2O)[C@](C)(O)C[C@@H](C)CN(C)[C@H](C)[C@@H](O)[C@]1(C)O [AZITHROMYCIN] | 0.03 µg/mL (≈ 0.0401 µM) | 256 µg/mL (≈ 342 µM) | 0.5 µg/mL (≈ 0.668 µM) | 8 µg/mL (≈ 10.7 µM) | 4 µg/mL (≈ 5.34 µM) | 128 µg/mL (≈ 171 µM) | 0.25 µg/mL (≈ 0.334 µM) | 2 µg/mL (≈ 2.67 µM) | 0.25 µg/mL (≈ 0.334 µM) | 0.03 µg/mL (≈ 0.0401 µM) | 0.5 µg/mL (≈ 0.668 µM)
5 | CC[C@H]1OC(=O)[C@H](C)[C@@H](O[C@H]2C[C@@](C)(OC)[C@@H](OC(=O)NCCCCNC(=O)c3ccc(OC)c(OC)c3)[C@H](C)O2)[C@H](C)[C@@H](O[C@@H]2O[C@H](C)C[C@H](N(C)C)[C@H]2O)[C@](C)(O)C[C@@H](C)CN(C)[C@H](C)[C@@H](OC(=O)NCCc2ccccc2)[C@]1(C)O | 8 µg/mL (≈ 6.81 µM) | 16 µg/mL (≈ 13.6 µM) | 16 µg/mL (≈ 13.6 µM) | 64 µg/mL (≈ 54.5 µM) | 2 µg/mL (≈ 1.7 µM) | 8 µg/mL (≈ 6.81 µM) | 0.5 µg/mL (≈ 0.426 µM) | 32 µg/mL (≈ 27.2 µM) | 4 µg/mL (≈ 3.41 µM) | 0.12 µg/mL (≈ 0.102 µM) | 4 µg/mL (≈ 3.41 µM)
6 | CC[C@H]1OC(=O)[C@H](C)[C@@H](O[C@H]2C[C@@](C)(OC)[C@@H](OC(=O)NCCCCNC(=O)c3ccc(OC)cc3)[C@H](C)O2)[C@H](C)[C@@H](O[C@@H]2O[C@H](C)C[C@H](N(C)C)[C@H]2O)[C@](C)(O)C[C@@H](C)CN(C)[C@H](C)[C@@H](OC(=O)NCCc2ccc(OC)cc2)[C@]1(C)O | 16 µg/mL (≈ 13.6 µM) | 8 µg/mL (≈ 6.81 µM) | 8 µg/mL (≈ 6.81 µM) | 64 µg/mL (≈ 54.5 µM) | 0.25 µg/mL (≈ 0.213 µM) | 2 µg/mL (≈ 1.7 µM) | 1 µg/mL (≈ 0.851 µM) | 1 µg/mL (≈ 0.851 µM) | 0.5 µg/mL (≈ 0.426 µM) | 0.06 µg/mL (≈ 0.0511 µM) | 4 µg/mL (≈ 3.41 µM)
7 | CC[C@H]1OC(=O)[C@H](C)[C@@H](O[C@H]2C[C@@](C)(OC)[C@@H](OC(=O)NCCCCNC(=O)c3ccc(OC)cc3)[C@H](C)O2)[C@H](C)[C@@H](O[C@@H]2O[C@H](C)C[C@H](N(C)C)[C@H]2O)[C@](C)(O)C[C@@H](C)CN(C)[C@H](C)[C@@H](OC(=O)NCCc2ccc(F)cc2)[C@]1(C)O | 16 µg/mL (≈ 13.8 µM) | 8 µg/mL (≈ 6.88 µM) | 4 µg/mL (≈ 3.44 µM) | 64 µg/mL (≈ 55.1 µM) | 0.5 µg/mL (≈ 0.43 µM) | 4 µg/mL (≈ 3.44 µM) | 1 µg/mL (≈ 0.86 µM) | 2 µg/mL (≈ 1.72 µM) | 2 µg/mL (≈ 1.72 µM) | 0.12 µg/mL (≈ 0.103 µM) | 4 µg/mL (≈ 3.44 µM)
8 | CC[C@H]1OC(=O)[C@H](C)[C@@H](O[C@H]2C[C@@](C)(OC)[C@@H](OC(=O)NCCNC(=O)c3ccc(C)cc3)[C@H](C)O2)[C@H](C)[C@@H](O[C@@H]2O[C@H](C)C[C@H](N(C)C)[C@H]2O)[C@](C)(O)C[C@@H](C)CN(C)[C@H](C)[C@@H](OC(=O)NCCc2ccccc2)[C@]1(C)O | 8 µg/mL (≈ 7.27 µM) | 8 µg/mL (≈ 7.27 µM) | 8 µg/mL (≈ 7.27 µM) | 64 µg/mL (≈ 58.2 µM) | 0.12 µg/mL (≈ 0.109 µM) | 2 µg/mL (≈ 1.82 µM) | 1 µg/mL (≈ 0.909 µM) | 2 µg/mL (≈ 1.82 µM) | 2 µg/mL (≈ 1.82 µM) | 0.06 µg/mL (≈ 0.0545 µM) | 2 µg/mL (≈ 1.82 µM)
9 | CC[C@H]1OC(=O)[C@H](C)[C@@H](O[C@H]2C[C@@](C)(OC)[C@@H](O)[C@H](C)O2)[C@H](C)[C@@H](O[C@@H]2O[C@H](C)C[C@H](N(C)C)[C@H]2O)[C@](C)(O)C[C@@H](C)C(=O)[C@H](C)[C@@H](O)[C@]1(C)O [ERYTHROMYCIN] | 0.03 µg/mL (≈ 0.0409 µM) | 256 µg/mL (≈ 349 µM) | 0.25 µg/mL (≈ 0.341 µM) | 4 µg/mL (≈ 5.45 µM) | 8 µg/mL (≈ 10.9 µM) | 128 µg/mL (≈ 174 µM) | 0.06 µg/mL (≈ 0.0818 µM) | 0.12 µg/mL (≈ 0.164 µM) | 2 µg/mL (≈ 2.73 µM) | 0.03 µg/mL (≈ 0.0409 µM) | 0.5 µg/mL (≈ 0.681 µM)
10 | CC[C@H]1OC(=O)[C@H](C)[C@@H](O[C@H]2C[C@@](C)(OC)[C@@H](OC(=O)NCCCCNC(=O)c3ccc(OC)cc3)[C@H](C)O2)[C@H](C)[C@@H](O[C@@H]2O[C@H](C)C[C@H](N(C)C)[C@H]2O)[C@](C)(O)C[C@@H](C)CN(C)[C@H](C)[C@@H](OC(=O)NCCc2ccccc2Cl)[C@]1(C)O | 16 µg/mL (≈ 13.6 µM) | 8 µg/mL (≈ 6.79 µM) | 4 µg/mL (≈ 3.39 µM) | 64 µg/mL (≈ 54.3 µM) | 0.5 µg/mL (≈ 0.424 µM) | 2 µg/mL (≈ 1.7 µM) | 0.5 µg/mL (≈ 0.424 µM) | 1 µg/mL (≈ 0.848 µM) | 8 µg/mL (≈ 6.79 µM) | 0.06 µg/mL (≈ 0.0509 µM) | 2 µg/mL (≈ 1.7 µM)

Reference: ChEMBL document CHEMBL2311450, “Synthesis and antibacterial evaluation of novel 11,4″-disubstituted azithromycin analogs with greatly improved activity against erythromycin-resistant bacteria” (2013)
